Ten compounds from patent publication US10364256B2 (GlaxoSmithKline Intellectual Property Development Limited, priority 2015, dated 2019) can be followed below.

Where two headings read alike, the source gives them in different places.

Assay [1] has as its target T1, Keap1 Kelch domain (321-609) / TAMRA-labeled 16mer NRF2 peptide (ETGE motif) (Homo sapiens, UniProt Q14145).
T1 construct: the Kelch domain (321-609) of Keap1 is used
In words: NRF2-Keap1 FP Assay (Keap1 Kelch fluorescence polarization). Type of assay: binding. The conditions noted are these: 20 nM Keap1 (321-609), 8 nM Tamra labeled peptide. An excerpt: One model for the NRF2-Keap1 interaction is through two binding sites in the Neh2 domain on NRF2. The two sites are referred to as the DLG binding motif (latch domain, uM affinity) and the ETGE binding motif (hinge domain, nM affinity). The Keap1 protein consists of an N-terminal region (NTR), a broad complex, tramtrack, and brick a′ brac domain (BTB), an intervening region (IVR), a double glycine repeat domain (DGR or Kelch), and a C-terminal region. The DLG and ETGE motifs of NRF2's Neh2 domain bind to the Kelch domain of Keap1 at different affinities. In the Keap1 Kelch fluorescence polarization (FP) assay, a TAMRA-labeled 16mer peptide (AFFAQLQLDEETGEFL) containing the ETGE motif of NRF2 and the Kelch domain (321-609) of Keap1 is used. The assay determines if a compound interferes with the binding between Keap1 […] and the TAMRA-labeled peptide. Binding of TAMRA-labeled NRF2 peptide to Keap1 (321-609) results in a high FP signal. If a compound interferes with the binding between the peptide and the protein, it will cause the assay signal to decrease. Thus, assay signal is inversely proportional to binding inhibition.
100 nl of 100× compound dose response curves (serial 3-fold dilutions) in DMSO are stamped using an Echo liquid handling system (Labcyte) into 384-well low volume black assay plates (Greiner, #784076), with DMSO in columns 6 and 18. The top concentration of compound is located in columns 1 and 13. Keap1 (321-609) is diluted to 40 nM (2×) in 1× assay buffer (50 mM Tris, pH 8.0, 100 mM NaCl, 5 mM MgCl2, 1 mM DTT, 2 mM CHAPS, and 0.005% BSA) and 5 ul is added using a Multidrop Combi (Thermo Electron Corporation) equipped with a metal tip dispenser to all wells of the compound plate, except column 18. Column 18 receives only 5 ul of assay buffer. Immediately, 5 uL of 16 nM (2×) of Tamra labeled peptide (AFFAQLQLDEETGEFL, 21st Century Biochemicals) is added to all wells of the plate. The plates are spun at 500 rpm for 1 min, incubated for 1 hr at room temperature, and read on an Analyst GT (Molecular Devices) equipped with excitation (530/25 nm) and emission (580/10 nm) filters designed for Tamra probes. A 561 nm dichroic mirror is also used in the Analyst. The final assay concentrations of Keap1 (321-609) and Tamra labeled peptide are 20 nM and 8 nM, respectively. Fluorescence measurements, represented as mP, are used in the transformation of the data. Compound activity is calculated based on percent inhibition, normalized against controls in the assay (Control 1 contains the Tamra peptide and Keap1 (321-609) together (0% response) and control 2 contains the Tamra peptide alone (100% response)). Data analysis is handled using the software package Abase XE (Surrey, United Kingdom. The % inhibition values are calculated by the equation: 100−(100*((compound response−average control 2)/(average control 1−average control2))). For calculation of pIC50s, Abase XE uses a four parameter equation. pIC50 is the negative log of the IC50.

For assay [2], the system named is NQO1 specific enzyme activity in BEAS-2B cells (marker for NRF2 activation). As to the kind of experiment: BEAS-2B NQO1 MTT Assay. In kind it is cell-based. As to conditions: compound incubated 48 hours, read-out: EC50 (NQO1 specific enzyme activity induction). From the text:
BEAS-2B NQO1 MTT Assay NAD(P)H:quinone oxidoreductase 1 (NQO1), also called DT diaphorase, is a homodimeric FAD-containing enzyme that catalyzes obligatory NAD(P)H-dependent two-electron reductions of quinones and protects cells against the toxic and neoplastic effects of free radicals and reactive oxygen species arising from one-electron reductions. The transcription of NQO1 is finely regulated by NRF2, and thus NQO1 activity is a good marker for NRF2 activation. On day one, frozen BEAS-2B cells (ATCC) are thawed in a water bath, counted, and re-suspended at a concentration of 250,000 cells/mL. Fifty microliters of cells are plated in 384 well black clear-bottomed plates. Plates are incubated at 37° C., 5% CO2 overnight. On day two, plates are centrifuged and 50 nL of compound or controls are added to the cells. Plates are then incubated at 37° C., 5% CO2 for 48 hours. On day four, medium is aspirated from the plate and crude cell lysates are made by adding 13 uL of 1× Cell Signaling Technologies lysis buffer with 1 Complete, Mini, EDTA-free Protease Inhibitor Tablet (Roche) for each 10 mL of lysis buffer. After lysis plates are incubated for 20 minutes at room temperature. Two microliters of lysate are removed for use in Cell Titer Glo assay (Promega) and MTT cocktail is prepared (Prochaska et. al. 1998) for measurement of NQO1 activity. Fifty microliters of MTT cocktail is added to each well, plate is centrifuged, and analyzed on an Envision plate reader (Perkin Elmer) using Absorbance 570 nm label for 30 minutes. Product formation is measured kinetically and the pEC50 of NQO1 specific activity induction is calculated by plotting the change in absorbance (Delta OD/min) versus the log of compound concentration followed by 3-parameter fitting. pEC50 is the negative log of the EC50.

Assay [3] has as its target T2, full length Keap1 protein / full length NRF2 protein (Homo sapiens, UniProt Q14145).
T2 construct: full length NRF2 protein and full length Keap1 protein (Keap1 exists a dimer) are used; His
As to the kind of experiment: NRF2-Keap1 TR-FRET Low Protein Assay. Type of assay: binding. As to conditions: 1.25 nM Keap1 FlagHis and 2.5 nM biotin-NRF2 added. From the text: NRF2-Keap1 TR-FRET Low Protein Assay In the NRF2-Keap1 TR-FRET (time-resolved fluorescence resonance energy transfer) low protein assay, full length NRF2 protein and full length Keap1 protein (Keap1 exists a dimer) are used. The assay detects a compound's ability to displace the binding of Keap1 […] with biotinylated Avi-NRF2 protein. Biotin-NRF2 binds to streptavidin-europium (a component of the detection mix) and Keap1 […] is recognized by anti-Flag APC (allophycocyanin) antibody (also a component of the detection mix). If binding occurs between the two proteins, there will be an energy transfer from the Eu+3 (donor) at 615 nm to the APC (acceptor) at 665 nm. A potential NRF2 inhibitor will cause a reduction in the TR-FRET signal by interfering with the binding of Keap1 to NRF2. Ten nanoliters of 100× compound dose response curves (serial 3-fold dilutions) in DMSO are stamped using an Echo liquid handling system (Labcyte) into 384-well, low volume, black assay plates (Greiner, #784076), with DMSO in columns 6 and 18. An additional 90 nl DMSO is added to each well, to bring the total volume to 100 nl per well. The top concentration of compound is located in columns 1 and 13, with the serial dilutions going across the row. All reagents are diluted in assay buffer (50 mM Tris, pH 8.0, 5 mM MgCl2, 100 mM NaCl, 0.005% BSA, 1 mM DTT, and 2 mM CHAPS. The BSA, DTT, and CHAPS are added to the assay buffer on the day of assay. […] Wells in column 18 receive 5 ul of assay buffer instead. Plates are centrifuged at 500 rpm for 1 minute, covered with a plate lid, and incubated at 37° C. for 2.25 hours. Plates are then removed from the incubator and allowed to cool to RT for 15 minutes. Five microliters of 2.5 nM biotin-NRF2 protein is then added to all wells of the plates and the plates are spun at 500 rpm for 1 minute, followed by incubating at 4° C. for 1.25 hours. The plates are then allowed to warm to RT for 15 minutes, followed by the addition of 10 ul of detection mix (1 nM Streptavidin Eu+W1024 and 5 ug/ml mouse anti-DYKDDDDK IgG conjugated to SureLight APC antibody; both from Columbia Biosciences) to all wells. Plates are spun at 500 rpm for 1 minute, incubated for 1 hour at RT, and read on an Envision plate reader using a 320 nm excitation filter and 615 nm and 665 nm emission filters. […] Data analysis is handled using the software package Abase XE (Surrey, United Kingdom). […] For calculation of pIC50s, Abase XE uses a four parameter equation. pIC50 is the negative log of the IC50.

T1 sequence (Q14145 321-609): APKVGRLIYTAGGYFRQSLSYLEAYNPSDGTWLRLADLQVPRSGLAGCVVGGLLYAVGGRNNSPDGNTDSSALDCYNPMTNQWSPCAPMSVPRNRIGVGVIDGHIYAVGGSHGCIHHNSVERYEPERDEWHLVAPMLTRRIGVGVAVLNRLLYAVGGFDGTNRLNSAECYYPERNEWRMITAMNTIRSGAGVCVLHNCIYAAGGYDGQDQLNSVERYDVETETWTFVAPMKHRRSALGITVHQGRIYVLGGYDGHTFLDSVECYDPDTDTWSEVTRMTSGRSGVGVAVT
T2 sequence (Q14145 whole entry): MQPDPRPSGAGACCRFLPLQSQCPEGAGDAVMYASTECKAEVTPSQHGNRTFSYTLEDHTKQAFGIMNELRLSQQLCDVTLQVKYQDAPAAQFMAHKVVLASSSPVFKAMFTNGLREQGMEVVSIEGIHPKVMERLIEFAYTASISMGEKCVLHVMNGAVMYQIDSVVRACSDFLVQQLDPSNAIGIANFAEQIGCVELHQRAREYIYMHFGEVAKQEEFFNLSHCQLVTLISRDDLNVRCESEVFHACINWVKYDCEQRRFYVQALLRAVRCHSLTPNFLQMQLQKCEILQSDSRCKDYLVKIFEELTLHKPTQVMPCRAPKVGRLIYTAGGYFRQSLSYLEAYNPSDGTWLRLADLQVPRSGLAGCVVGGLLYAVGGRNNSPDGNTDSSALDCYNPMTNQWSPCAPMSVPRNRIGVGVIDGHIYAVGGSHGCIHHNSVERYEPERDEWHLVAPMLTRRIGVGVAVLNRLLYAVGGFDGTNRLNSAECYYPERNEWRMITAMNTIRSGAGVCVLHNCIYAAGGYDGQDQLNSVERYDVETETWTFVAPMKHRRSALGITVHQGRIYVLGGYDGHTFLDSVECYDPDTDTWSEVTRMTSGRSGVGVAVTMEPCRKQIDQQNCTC

For “1-(3′-((1-Ethyl-2,3-dihydro-1H-benzo[e][1,4]diazepin-4(5H)-yl)methyl)-[1,1′-biphenyl]-3-yl)-5-((1,2-trans)-2-(1-methyl-1H-1,2,3-triazol-4-yl)cyclopropyl)-1H-pyrazole-4-carboxylic Acid [Example 127]”, the half-inhibitory concentration (IC50) in assay [1] and in assay [3] was 10 to 100 nM each time. Also, the EC50 in assay [2] was 100 to 1000 nM.
As to `C[C@H](Oc1cccc(-c2cccc(-n3ncc(C(=O)O)c3[C@@H]3C[C@H]3c3cn(C)nn3)c2)c1)C1CCCCC1` (racemic) [Example 75, 1-(3′-((S)-1-Cyclohexylethoxy)-[1,1′-biphenyl]-3-yl)-5-(trans-2-(1-methyl-1H-1,2,3-triazol-4-yl)cyclopropyl)-1H-pyrazole-4-carboxylic Acid], the EC50 in assay [2] (Homo sapiens, BEAS-2B, 48 h) was 1 to 10 nM.
As for `C[C@H](Oc1cccc(-c2cccc(-n3ncc(C(=O)O)c3[C@@H]3C[C@H]3c3cn(C4CC4)nn3)c2)c1)C1CCCCC1` (racemic) [Example 79, 1-(3′-((S)-1-Cyclohexylethoxy)-[1,1′-biphenyl]-3-yl)-5-(trans-2-(1-cyclopropyl-1H-1,2,3-triazol-4-yl)cyclopropyl)-1H-pyrazole-4-carboxylic acid], the EC50 in assay [2] (Homo sapiens) was 1 to 10 nM.
Still for that read-out and setting: the result for `C[C@H](Oc1cccc(-c2cccc(-n3ncc(C(=O)O)c3[C@@H]3C[C@H]3c3cn(C4CCOCC4)nn3)c2)c1)C1CCCCC1` (racemic) [Example 83, 1-(3′-((S)-1-Cyclohexylethoxy)-[1,1′-biphenyl]-3-yl)-5-(trans-2-(1-(tetrahydro-2H-pyran-4-yl)-1H-1,2,3-triazol-4-yl)cyclopropyl)-1H-pyrazole-4-carboxylic acid] reads 1 to 10 nM; that for `C[C@H](Oc1cccc(-c2cccc(-n3ncc(C(=O)O)c3[C@@H]3C[C@H]3c3cn(CC(F)(F)F)nn3)c2)c1)C1CCCCC1` (racemic) [Example 89, 1-(3′-((S)-1-Cyclohexylethoxy)-[1,1′-biphenyl]-3-yl)-5-(trans-2-(1-(2,2,2-trifluoroethyl)-1H-1,2,3-triazol-4-yl)cyclopropyl)-1H-pyrazole-4-carboxylic acid], 1 to 10 nM.
Same read-out and setting: then `C[C@H](Oc1cccc(-c2cccc(-n3ncc(C(=O)O)c3[C@@H]3C[C@H]3c3c[nH]nn3)c2)c1)C1CCCCC1` (racemic) [Example 93, 5-(trans-2-(1H-1,2,3-Triazol-4-yl)cyclopropyl)-1-(3′-((S)-1-cyclohexylethoxy)-[1,1′-biphenyl]-3-yl)-1H-pyrazole-4-carboxylic Acid], with 1 to 10 nM; and `C[C@H]1Cc2ccccc2S(=O)(=O)N(Cc2cccc(-c3cccc(-n4ncc(C(=O)O)c4[C@@H]4C[C@H]4c4cn(C)nn4)c3)c2)C1` (racemic) [Example 136, 1-(3′-(((S)-4-methyl-1,1-dioxido-4,5-dihydrobenzo[f][1,2]thiazepin-2(3H)-yl)methyl)-[1,1′-biphenyl]-3-yl)-5-((1,2-trans)-2-(1-methyl-1H-1,2,3-triazol-4-yl)cyclopropyl)-1H-pyrazole-4-carboxylic acid], with 100 to 1000 nM; and `C[C@@H]1Cc2ccccc2S(=O)(=O)N(Cc2cccc(-c3cccc(-n4ncc(C(=O)O)c4[C@@H]4C[C@H]4c4cn(C)nn4)c3)c2)C1` (racemic) [Example 137, 1-(3′-(((R)-4-methyl-1,1-dioxido-4,5-dihydrobenzo[f][1,2]thiazepin-2(3H)-yl)methyl)-[1,1′-biphenyl]-3-yl)-5-((1,2-trans)-2-(1-methyl-1H-1,2,3-triazol-4-yl)cyclopropyl)-1H-pyrazole-4-carboxylic acid], with 10 to 100 nM.
As for `CCC[C@@H]1CCCCN1C(=O)c1cccc(-c2cccc(-n3ncc(C(=O)O)c3[C@@H]3C[C@H]3c3cn(C)nn3)c2)c1` (racemic) [Example 199, 5-((1,2-trans)-2-(1-methyl-1H-1,2,3-triazol-4-yl)cyclopropyl)-1-(3′-((R)-2-propylpiperidine-1-carbonyl)-[1,1′-biphenyl]-3-yl)-1H-pyrazole-4-carboxylic acid], the EC50 in assay [2] (Homo sapiens, BEAS-2B, 48 h) fell in the range of 10 to 100 nM.
As for `CC(Cc1cccc(-c2cccc(-n3ncc(C(=O)O)c3[C@@H]3C[C@H]3c3cn(C)nn3)c2)c1)C1CCCCC1` (single isomer, unassigned) [Example 116f, 1-(3′-((R) or (S)-2-Cyclohexylpropyl)-[1,1′-biphenyl]-3-yl)-5-((1R,2R)-2-(1-methyl-1H-1,2,3-triazol-4-yl)cyclopropyl)-1H-pyrazole-4-carboxylic Acid], the concentration for half-maximal inhibition (IC50) in assay [1] is 10 to 100 nM. Also, the EC50 in assay [2] is 1 to 10 nM.
